Laboratory results as given in patent US8053573B2, “Monomer 5, 6-diphenyl-1.2.4-traizinic derivatives and the use thereof” (Pierre Fabre Dermo-Cosmetique, priority 2004, dated 2011).

Test: Spectral characteristics: molar extinction coefficient and specific absorbance
Type: physicochemical
Details: A1cm^1%; ethyl acetate, 10 μg/ml
Description: The calculation of the molar extinction coefficient (ε) is made from the Beer-Lambert law:
[formula] Wherein: A=absorbance I0=intensity of the incident light I=intensity of the transmitted light ε=molar extinction (or molar absorbance) coefficient in M^−1 cm^−1 l=path length in cm c=concentration in mol/l
The molar extinction coefficient can be expressed with respect to a given mass of the product. It thus makes it possible to be able to compare the coefficients of extinction between products for the same given quantity. This quantity is 1% by weight. The molar extinction coefficient thus becomes the specific absorbance (A1cm^1%).
[formula] Wherein: A1cm^1%=specific absorbance ε=molar extinction coefficient M=molar mass
The spectral characteristics of the compounds in comparison with commercial filters at a concentration of 10 μg/ml are summarized in tables 2-1 and 2-2.
Procedure: The products are dissolved in ethyl acetate to a concentration of 10 μg/ml. The spectra are measured using a dual-beam spectrophotometer (Varian CARY 50 Scan) between 290 nm and 400 nm.

**Q.** Which “Maximum specific absorbance UVA” value does the source give for `COc1ccc(-c2nnc(-c3ccccc3C#N)nc2-c2ccc(OC)cc2)cc1` [JR114, 3-(2-cyanophenyl)-5,6-bis(4-methoxyphenyl)-1,2,4-triazine] here?
**A.** 661

**Q.** Which “Maximum specific absorbance UVA” value does the source give for `COc1ccc(-c2nnc(-c3ccccc3O)nc2-c2ccc(OC)cc2)cc1` [JR89, 3-(2-hydroxyphenyl)-5,6-bis(4-methoxyphenyl)-1,2,4-triazine] here?
**A.** 526 at

**Q.** Which “Maximum specific absorbance UVB” value does the source give for `COc1ccc(-c2nnc(-c3cc(O)c(O)c(O)c3)nc2-c2ccc(OC)cc2)cc1` [JR115, 3-(3,4,5-hydroxyphenyl)-5,6-bis(4-methoxyphenyl)-1,2,4-triazine] here?
**A.** 747

**Q.** With `Oc1ccccc1-c1nnc(-c2ccccc2)c(-c2ccccc2)n1` [JR67, 3-(2-hydroxyphenyl)-5,6-diphenyl-1,2,4-triazine] as the molecule, how does the “Maximum specific absorbance UVA” value read?
**A.** 502

Same assay, conditions: ethyl acetate, 10 μg/ml

**Q.** Which results are given for `COc1ccc(-c2nnc(-c3ccccc3C#N)nc2-c2ccc(OC)cc2)cc1` [JR114, 3-(2-cyanophenyl)-5,6-bis(4-methoxyphenyl)-1,2,4-triazine]?
**A.** Maximum molar extinction coefficient UVA: 26000 M⁻¹ cm⁻¹; Wavelength of maximum molar extinction coefficient UVA: at 325; Wavelength of maximum specific absorbance UVA: at 352

**Q.** Which “Maximum molar extinction coefficient UVA” value does the source give for `COc1ccc(-c2nnc(-c3ccccc3O)nc2-c2ccc(OC)cc2)cc1` [JR89, 3-(2-hydroxyphenyl)-5,6-bis(4-methoxyphenyl)-1,2,4-triazine] here?
**A.** 20300 M⁻¹ cm⁻¹

**Q.** What about the “Wavelength of maximum molar extinction coefficient UVA” value of the same molecule?
**A.** at 335

**Q.** And the “Wavelength of maximum specific absorbance UVA” value?
**A.** 335

**Q.** Which results are given for `COc1ccc(-c2nnc(-c3cc(O)c(O)c(O)c3)nc2-c2ccc(OC)cc2)cc1` [JR115, 3-(3,4,5-hydroxyphenyl)-5,6-bis(4-methoxyphenyl)-1,2,4-triazine]?
**A.** Maximum molar extinction coefficient UVB: 34300 M⁻¹ cm⁻¹; Wavelength of maximum molar extinction coefficient UVB: at 310; Wavelength of maximum specific absorbance UVB: at 310

**Q.** Which “Maximum molar extinction coefficient UVA” value does the source give for `Oc1ccccc1-c1nnc(-c2ccccc2)c(-c2ccccc2)n1` [JR67, 3-(2-hydroxyphenyl)-5,6-diphenyl-1,2,4-triazine] here?
**A.** 16300 M⁻¹ cm⁻¹

**Q.** What about the “Wavelength of maximum molar extinction coefficient UVA” value of the same molecule?
**A.** at 330

**Q.** And the “Wavelength of maximum specific absorbance UVA” value?
**A.** at 330

Test: as above
Type: physicochemical
Details: A1cm^1%; ethyl acetate, 10 μg/ml
Remark: another data set of the same source

**Q.** Which “Maximum specific absorbance UVC” value does the source give for `COc1ccc(-c2nnc(-c3ccccc3O)nc2-c2ccc(OC)cc2)cc1` [JR89, 3-(2-hydroxyphenyl)-5,6-bis(4-methoxyphenyl)-1,2,4-triazine] here?
**A.** 502

**Q.** Which “Maximum specific absorbance UVC” value does the source give for `Oc1ccccc1-c1nnc(-c2ccccc2)c(-c2ccccc2)n1` [JR67, 3-(2-hydroxyphenyl)-5,6-diphenyl-1,2,4-triazine] here?
**A.** 811

Same assay, conditions: ethyl acetate, 10 μg/ml

**Q.** With `COc1ccc(-c2nnc(-c3ccccc3O)nc2-c2ccc(OC)cc2)cc1` [JR89, 3-(2-hydroxyphenyl)-5,6-bis(4-methoxyphenyl)-1,2,4-triazine] as the molecule, how does the “Maximum molar extinction coefficient UVC” value read?
**A.** 19300 M⁻¹ cm⁻¹

**Q.** What about the “Wavelength of maximum molar extinction coefficient UVC” value of the same molecule?
**A.** at 280

**Q.** And the “Wavelength of maximum specific absorbance UVC” value?
**A.** at 280

**Q.** Which “Maximum molar extinction coefficient UVC” value does the source give for `Oc1ccccc1-c1nnc(-c2ccccc2)c(-c2ccccc2)n1` [JR67, 3-(2-hydroxyphenyl)-5,6-diphenyl-1,2,4-triazine] here?
**A.** 26300 M⁻¹ cm⁻¹

**Q.** And the “Wavelength of maximum molar extinction coefficient UVC” value?
**A.** at 280

**Q.** And the “Wavelength of maximum specific absorbance UVC” value?
**A.** at 280

Test: Spectral distribution in UVA and UVB (290-400 nm)
Type: physicochemical
Details: range from 290 nm to 400 nm
Description: The products tested are classified according to spectral distribution in UVA and UVB in a range from 290 nm to 400 nm.
It is possible to differentiate them according to their spectral distribution:
Products with a narrow spectrum: • Products absorbing in the range between 280 nm and 320 nm (UVB) • Products absorbing in the range between 320 nm and 400 nm (UVA) Products with a broad spectrum: • Products absorbing in UVB (280-320 nm) and UVA-II […] • Products covering UVB and UVA (280-400 nm).

**Q.** For `COc1ccc(-c2nnc(-c3ccccc3C#N)nc2-c2ccc(OC)cc2)cc1` [JR114, 3-(2-cyanophenyl)-5,6-bis(4-methoxyphenyl)-1,2,4-triazine], which Spectral distribution is on record?
**A.** absorb in UVB and UVA

**Q.** For `COc1ccc(-c2nnc(-c3ccccc3O)nc2-c2ccc(OC)cc2)cc1` [JR89, 3-(2-hydroxyphenyl)-5,6-bis(4-methoxyphenyl)-1,2,4-triazine], which Spectral distribution is on record?
**A.** absorb in UVB (280-320 nm) and UVA-II (280-340 nm)

**Q.** Which Spectral distribution does the source give for `COc1ccc(-c2nnc(-c3cc(O)c(O)c(O)c3)nc2-c2ccc(OC)cc2)cc1` [JR115, 3-(3,4,5-hydroxyphenyl)-5,6-bis(4-methoxyphenyl)-1,2,4-triazine] here?
**A.** absorb in UVB (280-320 nm) and UVA-II (280-340 nm)

Test: Photostability in solution in a chemical solvent (Suntest CPS+)
Type: physicochemical
Details: 25 μg deposited from methanol, Suntest irradiation 10 MED, absorbance vs non-irradiated control; in % (unit assumed)
Description: A Suntest CPS+ (Atlas, Linsengenicht/Altenhasslan, Germany) was used. The Suntest makes it possible to reproduce the solar spectrum and thus to carry out exposures inside at any time without weather constraints.
The radiance of the solar simulator was carefully measured with a spectroradiometer (MSS 2044, Bielefeld, Germany). UVB and UVA intensities were 0.49 mW/cm^2 and 6.32 mW/cm^2, respectively. The MED value defined by COLIPA is 5.6 J/cm^2 in total UV (22). The UV total (UVA+UVB) accounts for 14.8% of the energy delivered by the lamp (power 460 W/m^2). An irradiation dose equivalent to 1 MED corresponds to 37.83 J/cm^2 (in total spectrum) delivered by the lamp.
The Suntest test duration is calculated using the following formula: t=H/E with: […]
The solutions of the compounds are prepared at a concentration of 500 μg/ml in methanol. 50 μl (25 μg) of each solution are deposited in a crystallizer, then irradiated in the Suntest at 5, 10 and/or 20 MED. A non-irradiated control is prepared (deposit of 50 μl of solution and addition of 2.450 ml of methanol). The solvent evaporates during irradiation and the products are taken up in 2.5 ml of methanol. After irradiation, the absorbance of each solution is measured with the UV-visible spectrophotometer (Varian CARY 50 Scan).

**Q.** Which “Photostability at 10 MED mean” value does the source give for `CCN(CC)c1ccc(-c2nnc(O)nc2-c2ccc(N(CC)CC)cc2)cc1` [JR18, 3-hydroxy-5,6-bis(4-diethylaminophenyl)-1,2,4-triazine] here?
**A.** 82.86

**Q.** Which “Photostability at 10 MED mean” value does the source give for `COc1ccc(-c2nnc(-c3ccccc3C#N)nc2-c2ccc(OC)cc2)cc1` [JR114, 3-(2-cyanophenyl)-5,6-bis(4-methoxyphenyl)-1,2,4-triazine] here?
**A.** 92.07

**Q.** With `COc1ccc(-c2nnc(-c3ccccc3O)nc2-c2ccc(OC)cc2)cc1` [JR89, 3-(2-hydroxyphenyl)-5,6-bis(4-methoxyphenyl)-1,2,4-triazine] as the molecule, how does the “Photostability at 10 MED mean” value read?
**A.** 97.39

**Q.** Which “Photostability at 10 MED mean” value does the source give for `COc1ccc(-c2nnc(-c3cc(O)c(O)c(O)c3)nc2-c2ccc(OC)cc2)cc1` [JR115, 3-(3,4,5-hydroxyphenyl)-5,6-bis(4-methoxyphenyl)-1,2,4-triazine] here?
**A.** 57.63

Same assay, conditions: 25 μg deposited from methanol, Suntest irradiation 20 MED, absorbance vs non-irradiated control; in % (unit assumed)

**Q.** Which “Photostability at 20 MED mean” value does the source give for `CCN(CC)c1ccc(-c2nnc(O)nc2-c2ccc(N(CC)CC)cc2)cc1` [JR18, 3-hydroxy-5,6-bis(4-diethylaminophenyl)-1,2,4-triazine] here?
**A.** 57.37

**Q.** For `COc1ccc(-c2nnc(-c3ccccc3C#N)nc2-c2ccc(OC)cc2)cc1` [JR114, 3-(2-cyanophenyl)-5,6-bis(4-methoxyphenyl)-1,2,4-triazine], which “Photostability at 20 MED mean” value is on record?
**A.** 91.43

**Q.** With `COc1ccc(-c2nnc(-c3ccccc3O)nc2-c2ccc(OC)cc2)cc1` [JR89, 3-(2-hydroxyphenyl)-5,6-bis(4-methoxyphenyl)-1,2,4-triazine] as the molecule, how does the “Photostability at 20 MED mean” value read?
**A.** 98.72

**Q.** Which “Photostability at 20 MED mean” value does the source give for `COc1ccc(-c2nnc(-c3cc(O)c(O)c(O)c3)nc2-c2ccc(OC)cc2)cc1` [JR115, 3-(3,4,5-hydroxyphenyl)-5,6-bis(4-methoxyphenyl)-1,2,4-triazine] here?
**A.** 46.42
